{
  "source": "patent US5281604A",
  "about": "“Angiotensin II receptor blocking 2,3,6-substituted quinazolinones” (American Cyanamid Company, priority 1993, dated 1994)",
  "system": "ANGIOTENSIN II (AII) VASOPRESSOR RESPONSE",
  "experiment": "AII Challenge: blockade of the angiotensin II vasopressor response in conscious spontaneously hypertensive rats",
  "format": "in vivo, rat (Male Okamoto-Aoki SHR)",
  "conditions": "3 mg/kg i.v.",
  "key": {"[1]": {"conditions": "AII 0.05 mcg/kg IV, 30 min post dose"}, "[2]": {"conditions": "AII 0.05 mcg/kg IV, 60 min post dose"}, "[3]": {"conditions": "AII 0.05 mcg/kg IV, 90 min post dose"}, "[4]": {"conditions": "AII 0.05 mcg/kg IV, 120 min post dose"}, "[5]": {"conditions": "AII 0.05 mcg/kg IV, 180 min post dose"}, "[6]": {"conditions": "AII 0.05 mcg/kg IV, 240 min post dose"}, "[7]": {"conditions": "AII 0.05 mcg/kg IV, 300 min post dose"}, "[8]": {"conditions": "AII 0.1 mcg/kg IV, 30 min post dose"}, "[9]": {"conditions": "AII 0.1 mcg/kg IV, 60 min post dose"}, "[10]": {"conditions": "AII 0.1 mcg/kg IV, 90 min post dose"}, "[11]": {"conditions": "AII 0.1 mcg/kg IV, 120 min post dose"}, "[12]": {"conditions": "AII 0.1 mcg/kg IV, 180 min post dose"}, "[13]": {"conditions": "AII 0.1 mcg/kg IV, 240 min post dose"}, "[14]": {"conditions": "AII 0.1 mcg/kg IV, 300 min post dose"}},
  "note": "“And” between values parts separate entries of the source, which are not always exact repeats. Identical values can stand only once.",
  "data": [
    {"smiles": "CCCCc1nc2ccc(C3CC4C(c5ccc(C)cc5)=NOC4O3)cc2c(=O)n1Cc1ccc(-c2ccccc2-c2nnn[nH]2)cc1", "note": "(stereo not shown) [Example 12]", "values": [
      {"measurement": "% Inhibition", "setting": "[1]", "result": 56, "unit": "%"},
      {"measurement": "Average Change", "setting": "[1]", "result": 16.5, "unit": "mmHg"},
      {"measurement": "Control Before AII (single rat)", "setting": "[1]", "result": "220 mmHg and 255 mmHg"},
      {"measurement": "Response After AII (single rat)", "setting": "[1]", "result": "233 mmHg and 275 mmHg"},
      {"measurement": "Response Change (single rat)", "setting": "[1]", "result": "13 mmHg and 20 mmHg"},
      {"measurement": "% Inhibition", "setting": "[2]", "result": 53, "unit": "%"},
      {"measurement": "Average Change", "setting": "[2]", "result": 17.5, "unit": "mmHg"},
      {"measurement": "Control Before AII (single rat)", "setting": "[2]", "result": "215 mmHg and 245 mmHg"},
      {"measurement": "Response After AII (single rat)", "setting": "[2]", "result": "235 mmHg and 260 mmHg"},
      {"measurement": "Response Change (single rat)", "setting": "[2]", "result": "20 mmHg and 15 mmHg"},
      {"measurement": "% Inhibition", "setting": "[3]", "result": 60, "unit": "%"},
      {"measurement": "Average Change", "setting": "[3]", "result": 15, "unit": "mmHg"},
      {"measurement": "Control Before AII (single rat)", "setting": "[3]", "result": "225 mmHg and 235 mmHg"},
      {"measurement": "Response After AII (single rat)", "setting": "[3]", "result": "240 mmHg and 250 mmHg"},
      {"measurement": "Response Change (single rat)", "setting": "[3]", "result": 15, "unit": "mmHg"},
      {"measurement": "% Inhibition", "setting": "[4]", "result": 45, "unit": "%"},
      {"measurement": "Average Change", "setting": "[4]", "result": 20.5, "unit": "mmHg"},
      {"measurement": "Control Before AII (single rat)", "setting": "[4]", "result": "207 mmHg and 225 mmHg"},
      {"measurement": "Response After AII (single rat)", "setting": "[4]", "result": "233 mmHg and 240 mmHg"},
      {"measurement": "Response Change (single rat)", "setting": "[4]", "result": "26 mmHg and 15 mmHg"},
      {"measurement": "% Inhibition", "setting": "[5]", "result": 33, "unit": "%"},
      {"measurement": "Average Change", "setting": "[5]", "result": 25, "unit": "mmHg"},
      {"measurement": "Control Before AII (single rat)", "setting": "[5]", "result": "195 mmHg and 225 mmHg"},
      {"measurement": "Response After AII (single rat)", "setting": "[5]", "result": "225 mmHg and 245 mmHg"},
      {"measurement": "Response Change (single rat)", "setting": "[5]", "result": "30 mmHg and 20 mmHg"},
      {"measurement": "% Inhibition", "setting": "[6]", "result": 53, "unit": "%"},
      {"measurement": "Average Change", "setting": "[6]", "result": 17.5, "unit": "mmHg"},
      {"measurement": "Control Before AII (single rat)", "setting": "[6]", "result": "220 mmHg and 230 mmHg"},
      {"measurement": "Response After AII (single rat)", "setting": "[6]", "result": "240 mmHg and 245 mmHg"},
      {"measurement": "Response Change (single rat)", "setting": "[6]", "result": "20 mmHg and 15 mmHg"},
      {"measurement": "% Inhibition", "setting": "[7]", "result": 48, "unit": "%"},
      {"measurement": "Average Change", "setting": "[7]", "result": 19.5, "unit": "mmHg"},
      {"measurement": "Control Before AII (single rat)", "setting": "[7]", "result": "220 mmHg and 230 mmHg"},
      {"measurement": "Response After AII (single rat)", "setting": "[7]", "result": "245 mmHg and 244 mmHg"},
      {"measurement": "Response Change (single rat)", "setting": "[7]", "result": "25 mmHg and 14 mmHg"},
      {"measurement": "% Inhibition", "setting": "[8]", "result": 53, "unit": "%"},
      {"measurement": "Average Change", "setting": "[8]", "result": 18.5, "unit": "mmHg"},
      {"measurement": "Control Before AII (single rat)", "setting": "[8]", "result": "218 mmHg and 250 mmHg"},
      {"measurement": "Response After AII (single rat)", "setting": "[8]", "result": "245 mmHg and 260 mmHg"},
      {"measurement": "Response Change (single rat)", "setting": "[8]", "result": "27 mmHg and 10 mmHg"},
      {"measurement": "% Inhibition", "setting": "[9]", "result": 42, "unit": "%"},
      {"measurement": "Average Change", "setting": "[9]", "result": 22.5, "unit": "mmHg"},
      {"measurement": "Control Before AII (single rat)", "setting": "[9]", "result": "220 mmHg and 240 mmHg"},
      {"measurement": "Response After AII (single rat)", "setting": "[9]", "result": "245 mmHg and 260 mmHg"},
      {"measurement": "Response Change (single rat)", "setting": "[9]", "result": "25 mmHg and 20 mmHg"},
      {"measurement": "% Inhibition", "setting": "[10]", "result": 29, "unit": "%"},
      {"measurement": "Average Change", "setting": "[10]", "result": 27.5, "unit": "mmHg"},
      {"measurement": "Control Before AII (single rat)", "setting": "[10]", "result": "220 mmHg and 230 mmHg"},
      {"measurement": "Response After AII (single rat)", "setting": "[10]", "result": "250 mmHg and 255 mmHg"},
      {"measurement": "Response Change (single rat)", "setting": "[10]", "result": "30 mmHg and 25 mmHg"},
      {"measurement": "% Inhibition", "setting": "[11]", "result": 23, "unit": "%"},
      {"measurement": "Average Change", "setting": "[11]", "result": 30, "unit": "mmHg"},
      {"measurement": "Control Before AII (single rat)", "setting": "[11]", "result": "205 mmHg and 225 mmHg"},
      {"measurement": "Response After AII (single rat)", "setting": "[11]", "result": "240 mmHg and 250 mmHg"},
      {"measurement": "Response Change (single rat)", "setting": "[11]", "result": "35 mmHg and 25 mmHg"},
      {"measurement": "% Inhibition", "setting": "[12]", "result": 42, "unit": "%"},
      {"measurement": "Average Change", "setting": "[12]", "result": 22.5, "unit": "mmHg"},
      {"measurement": "Control Before AII (single rat)", "setting": "[12]", "result": "205 mmHg and 225 mmHg"},
      {"measurement": "Response After AII (single rat)", "setting": "[12]", "result": "225 mmHg and 250 mmHg"},
      {"measurement": "Response Change (single rat)", "setting": "[12]", "result": "20 mmHg and 25 mmHg"},
      {"measurement": "% Inhibition", "setting": "[13]", "result": 10, "unit": "%"},
      {"measurement": "Average Change", "setting": "[13]", "result": 35, "unit": "mmHg"},
      {"measurement": "Control Before AII (single rat)", "setting": "[13]", "result": "220 mmHg and 225 mmHg"},
      {"measurement": "Response After AII (single rat)", "setting": "[13]", "result": "260 mmHg and 255 mmHg"},
      {"measurement": "Response Change (single rat)", "setting": "[13]", "result": "40 mmHg and 30 mmHg"},
      {"measurement": "% Inhibition", "setting": "[14]", "result": 10, "unit": "%"},
      {"measurement": "Average Change", "setting": "[14]", "result": 35, "unit": "mmHg"},
      {"measurement": "Control Before AII (single rat)", "setting": "[14]", "result": "220 mmHg and 225 mmHg"},
      {"measurement": "Response After AII (single rat)", "setting": "[14]", "result": "255 mmHg and 260 mmHg"},
      {"measurement": "Response Change (single rat)", "setting": "[14]", "result": 35, "unit": "mmHg"}
    ]}
  ]
}
